According to patent publication US20190048365A1, “MITOCHONDRIAL MICROINJECTION OF OOCYTES” (Eastern Virginia Medical School, priority 2015, published 2019):

Tests used:
[1] = tested on: isolated human platelet mitochondria; assay: ATP levels in isolated mitochondria incubated with supplement (chemiluminescence assay); type: biochemical; details: 2.0 micromolar (maximum increase)
Method: Experiment: Aliquots of isolated human platelet mitochondria were incubated for different amounts of time in the presence of differing concentrations of L-carnitine, a compound known to stimulate the uptake and metabolism of fat molecules for use by the mitochondria to produce ATP. Along the X-axis of this graph, the numbers 1, 2, 3, and 4 refer to 0, 0.2 micromolar, 2.0 micromolar, and 20 micromolar concentrations of L-carnitine in the mitochondrial incubation buffer. The mitochondrial aliquots in hatched columns (Series 1) were incubated for 20 minutes in the presence of the L-carnitine while the mitochondrial aliquots in non-hatched columns (Series 2) were incubated for 60 minutes in the presence of L-carnitine. After these incubation times, the samples were processed to measure ATP by a very sensitive chemiluminescence assay.

[2] = tested on: inner mitochondrial membrane potential of human platelets; details: JC-1 2 μM, purified human platelets
Method: In FIG. 5A, platelets are stained with mitochondrial inner membrane sensitive dye JC-1(2 μM) (630× magnification). […] The red stained mitochondria reflect mitochondria with a Wm capable of supporting ATP production. […] FCCP is an uncoupler, a chemical that destroys the inner mitochondrial membrane potential Wm.

purified human platelets = assay: Fluo-4 staining of purified platelets (platelet activation); type: cell-based; details: Fluo-4, with 2 mM calcium chloride
Excerpt: FIGS. 6A and 6B provide further evidence of the functionality of the purified human platelets. […] Dull green fluorescence indicates functional but inactivated platelets. To activate platelets so they can begin to aggregate to initiate the blood clotting process, calcium ions should be at a significant concentration within the platelet cytoplasm.

## C[N+](C)(C)C[C@H](O)CC(=O)[O-] [L-carnitine]
[1]; 20 minute incubation (Series 1)
  increase in ATP levels: 47%
[1]; 60 minute incubation (Series 2)
  increase in ATP levels: 80%

## N#CC(C#N)=NNc1ccc(OC(F)(F)F)cc1 [FCCP, Carbonyl cyanide-4-(trifluoromethoxy)phenylhydrazone]
[2]
  effect on JC-1 red fluorescence (functional mitochondria): elimination of the red fluorescence

## CNc1ccc2oc(C[C@H]3O[C@@]4(CC[C@H]3C)O[C@H]([C@H](C)C(=O)c3ccc[nH]3)[C@H](C)C[C@H]4C)nc2c1C(=O)O [A23187]
Purified human platelets
  effect on Fluo-4 green fluorescence (platelet activation): much more intense green fluorescence
